According to patent US20160361250A1, “ACTIVE INGREDIENTS STIMULATING TYPE 2 AND/OR TYPE 3 HUMAN BETA-DEFENSINS AND COSMETIC OR PHARMACEUTICAL COMPOSITIONS CONTAINING SUCH ACTIVE INGREDIENTS” (BASF Beauty Care Solutions France S.A.S., priority 2002, published 2016):

Tests used:
hBD2 [1] = experiment: Qualitative RT-PCR of hBD2 expression, 1st step of the screening method; type: cell-based; details: normal human keratinocytes, 16 h
Protocol: (§1) A 1% concentration of the actives is tested on normal human keratinocytes, as a monolayer, on 96-well culture plates, in a specific medium enriched with calcium and free of serum (final concentration 1.7 mM).
(§2) At 80% confluence, cells are contacted with the actives (1 active per well) for 16 h. An untreated control and 2 positive controls (TNFα 100 ng/mL for hBD2 and IFNγ 100 ng/mL for hBD3) are set up in parallel on the same culture plate.
(§3) After 16 h, the supernatants are collected and cells are dry frozen at −80° C. after rinsing in PBS.
(§4) Total RNA are extracted using a 96-well extraction kit on silica columns and assayed using a 96-well spectrophotometer at 260 and 280 nm. RNA are diluted to 5 ng/mL.
(§5) Qualitative one-step RT-PCR is performed on 50 ng of initial RNA in 96 wells, on actin, hBD2 and hBD3. The primers are used at a concentration of 0.5 μM and arc taken from the literature:—hBD2: sense: 5′-[…]-3′; hBD2 antisense 5′-[…]-3′ (Harder J. et al., A peptide antibiotic from human skin. Nature 1997; 387 : 861); hBD3 sense: 5′-[…]-3′; hBD3 antisense: 5′-[…]-3′; actin sense: 5′-[…]-3′; actin antisense: 5′-[…]-3′ (Harder J. et al., Isolation and characterization of human β-defensin-3, a novel human inducible peptide antibiotic. J Biol Chem 2001, 276 : 5707-5713).
(§6) Samples are placed in a thermocycler and follow a common amplification program: 50° C., 30 min; 94° C., 2 min, (94° C., 30 s; 60° C., 30 s; 68° C., 30 s), 32 cycles for the defensins and 30 cycles for actin; 72° C., 10 min; 14° C., infinite.
(§7) After amplification, the products are mixed at a rate of 3 μL of actin amplification products+6 μL of hBD2 amplification products+6 μL of hBD3 amplification products. 5 μL of a mixture of charge buffer and water (⅔) are added and the final 20 μL are deposited on 2% premoulded agarose gel. The samples migrate in 30 minutes and the bands are visualised under UV in a dark room then digitally photographed.
(§8) Photos of the gels are analysed by image processing software which quantifies the intensity of the bands. As the basal level of defensin expression (untreated control) is not detectable, the intensity ratios of the hBD2/actin and hBD3/actin bands can be compared, for example with those obtained for the positive control (treated with TNFα for hBD2 and IFNγ for hBD3) and indicate any stimulation of the expression of the β-defensin in question
(§9) Since the basal level of defensin expression is generally not detectable, stimulation of hBD2 and hBD3 is expressed as a percentage of the positive controls (TNFα for hBD2 and IFNγ for hBD3). IL8 and MIP3α levels are given as pg/mL/RNA concentration (in ng/μL).

hBD3 [2] = experiment: Qualitative RT-PCR of hBD3 expression, 1st step of the screening method; type: cell-based; details: normal human keratinocytes, 16 h
Protocol: as §2, §3, §4, §5, §6, §7, §8, §9

hBD2 [3] = experiment: Quantitative RT-PCR of hBD2 expression, 2nd step (dose-effect); type: cell-based, human; details: 16 h, untreated control = 100%
Protocol: (§10) The actives are then tested on 5 concentrations (from 0.001% to max viability) in quadruplicate on normal human keratinocytes as a monolayer on 96-well culture plates, in a specific medium enriched with calcium and free of serum (CaCl2 1.7 mM) (same conditions as in example 1).
as §3
(§11) Total RNA are extracted using a 96-well extraction kit on silica columns and assayed using a 96-well spectrophotometer at 260 and 280 nm. RNA are diluted to 5 ng/μL.
(§12) Quantitative RT-PCR in 96 wells on actin, hBD2 and hBD3 is initially carried out on 50 ng of RNA, using a one-step kit containing Sybrgreen, in a fluorescence thermocycler with the same primers as previously (0.5 μM). The amplification program is as follows: 50° C., 30 min; 94° C., 15 min; (94° C., 15 s; 60° C., 30 s; 72° C., 30 s)×50 cycles; 90° C., 1 min; 30° C., 1 min; 50° C. to 95° C. (10 s every ° C.); 14° C., infinite.
(§13) A study of the fusion graphs makes it possible to verify the specificity of amplified products. The fluorescence graph as a function of the number of cycles gives the C(T) value corresponding to the number of cycles needed to obtain initiation of the fluorescence signal. The more an mRNA is expressed, the lower the C(T) value. Calculation of Sgene=(½)^C(T) for each RNA takes into consideration the exponential increase in the number of copies during amplification. The Sgene hBD2/Sgene actin and Sgene hBD3/Sgene actin ratios can be compared with those of the untreated control to give the percentage stimulation produced.
(§14) Quantitative RT-PCR makes it possible to obtain a basal value for the defensin expression for untreated controls. The results are therefore expressed as a percentage of the control. IL8, IL1 and MIP3 cytokine levels are given as pg/mL/RNA concentration (in ng/μL).
(§15) In the same way as in example 2, retinoic acid and retinol were tested for their capacity to stimulate hBD2 and/or hBD3.

hBD3 [4] = experiment: Quantitative RT-PCR of hBD3 expression, 2nd step (dose-effect); type: cell-based, human; details: 16 h, untreated control = 100%
Protocol: as §10, §3, §11, §12, §13, §14, §15

MIP3α [5] = experiment: ELISA of MIP3α in supernatants, 2nd step; type: cell-based, human; details: supernatant, 16 h
Protocol: (§16) The supernatants of the actives, whose capacity to induce defensins has been confirmed, are tested using an ELISA kit in order to assay MIP3α, IL8 and IL1α levels. These assays are performed on the same supernatant (200 μL) by carrying out a series dilution (by 1.5 to assay MIP3α and IL8, then by 2 to assay IL1). The levels are then referred to the RNA concentration assayed in each well in order to compare results with each other.
as §14

IL8 [6] = experiment: ELISA of IL8 in supernatants, 2nd step; type: cell-based, human; details: supernatant, 16 h
Protocol: as §16, §14

IL1α = experiment: ELISA of IL1α in supernatants, 2nd step; type: cell-based, human; details: supernatant, 16 h
Protocol: as §16, §14

hBD2 and/or hBD3 [7] = experiment: 1st step of the screening method, overall outcome (defensin RT-PCR plus MIP3α/IL8 ELISA); type: cell-based, human; details: first step
Protocol: as §1, §2, §3, §4
as §5, with “5707-5713). […]” for “5707-5713).”
Photos of the gels are analysed by image processing software which quantifies the intensity of the bands. […]

hBD2 and/or hBD3 [8] = experiment: 2nd step of the screening method, overall outcome (quantitative RT-PCR plus MIP3α/IL8/IL1α ELISA); type: cell-based, human; details: 3.125, 6.25, 12.5 and 25 μg/mL
Protocol: The actives which best satisfied the criteria for the first step undergo a dose-effect analysis.
as §10, §3, §11, §12, §13
as §16, with “The levels are then referred to the RNA concentration assayed in each well in order to compare results with each other.” left out

MIP3α [9] = experiment: ELISA of MIP3α secreted into the culture medium, 1st step; type: cell-based, human; details: 100 μg/mL; keratinocyte supernatant, 16 h
Protocol: (§17) At the end of this first step, the actives having exerted an effect on β-defensin expression are selected and the supernatants corresponding to these actives are then tested using an ELISA kit in order to determine the levels of MIP3α, IL1 and IL8 secreted into the culture medium under the effect of the actives. The levels are then referred to the RNA concentration assayed in each well in order to compare results with each other.
as §9

IL8 [10] = experiment: ELISA of IL8 secreted into the culture medium, 1st step; type: cell-based, human; details: 100 μg/mL; keratinocyte supernatant, 16 h
Protocol: as §17, §9

CC[C@H](C)[C@H](N)C(=O)O [L-Isoleucine]
HBD2 expression, percentage of the positive control (TNFα) (hBD2 [1]; 10 μg/mL): 0%
HBD3 expression, percentage of the positive control (IFNγ) (hBD3 [2]; 10 μg/mL): 0%
hBD2 expression, percentage of the control (hBD2 [3]; conc. 3.125 μg/mL): 110%
hBD2 expression, percentage of the control (hBD2 [3]; conc. 6.25 μg/mL): 107%
hBD2 expression, percentage of the control (hBD2 [3]; conc. 12.5 μg/mL): 95%
hBD2 expression, percentage of the control (hBD2 [3]; conc. 25 μg/mL): 110%
hBD3 expression, percentage of the control (hBD3 [4]; conc. 3.125 μg/mL): 89%
hBD3 expression, percentage of the control (hBD3 [4]; conc. 6.25 μg/mL): 94%
hBD3 expression, percentage of the control (hBD3 [4]; conc. 12.5 μg/mL): 101%
hBD3 expression, percentage of the control (hBD3 [4]; conc. 25 μg/mL): 106%
MIP3α level (MIP3α [5]; conc. 3.125 μg/mL): 5.2 pg/mL/RNA concentration (in ng/μL)
MIP3α level (MIP3α [5]; conc. 6.25 μg/mL): 4.9 pg/mL/RNA concentration (in ng/μL)
MIP3α level (MIP3α [5]; conc. 12.5 μg/mL): 5.9 pg/mL/RNA concentration (in ng/μL)
MIP3α level (MIP3α [5]; conc. 25 μg/mL): 4.5 pg/mL/RNA concentration (in ng/μL)
IL8 level (IL8 [6]; conc. 3.125 μg/mL): 36.9 pg/mL/RNA concentration (in ng/μL)
IL8 level (IL8 [6]; conc. 6.25 μg/mL): 33.6 pg/mL/RNA concentration (in ng/μL)
IL8 level (IL8 [6]; conc. 12.5 μg/mL): 42.2 pg/mL/RNA concentration (in ng/μL)
IL8 level (IL8 [6]; conc. 25 μg/mL): 35.1 pg/mL/RNA concentration (in ng/μL)
IL1α level (IL1α; conc. 3.125 μg/mL): 21 pg/mL/RNA concentration (in ng/μL)
IL1α level (IL1α; conc. 6.25 μg/mL): 22.3 pg/mL/RNA concentration (in ng/μL)
IL1α level (IL1α; conc. 12.5 μg/mL): 25.3 pg/mL/RNA concentration (in ng/μL)
IL1α level (IL1α; conc. 25 μg/mL): 22.8 pg/mL/RNA concentration (in ng/μL)
stimulation of human defensins 2 and 3 by qualitative RT-PCR (in words) (hBD2 and/or hBD3 [7]): no significant stimulation of human defensins 2 and 3
induction of hBD2 and hBD3 expression in normal human keratinocytes (in words) (hBD2 and/or hBD3 [8]): has not been found capable of inducing hBD2 and hBD3 expression

CC[C@H](C)[C@H](N)C(=O)OC [Isoleucine Methyl ester]
HBD2 expression, percentage of the positive control (TNFα) (hBD2 [1]; 100 μg/mL): 16%
HBD3 expression, percentage of the positive control (IFNγ) (hBD3 [2]; 100 μg/mL): 6%
MIP3α level (MIP3α [9]): 3.8 pg/mL/RNA concentration (in ng/μL)
IL8 level (IL8 [10]): 7.7 pg/mL/RNA concentration (in ng/μL)

CC[C@H](C)[C@H](N)C(=O)O (racemic) [D,L-Isoleucine]
HBD2 expression, percentage of the positive control (TNFα) (hBD2 [1]; 100 μg/mL): 0%
HBD3 expression, percentage of the positive control (IFNγ) (hBD3 [2]; 100 μg/mL): 0%
MIP3α level (MIP3α [9]): 5.6 pg/mL/RNA concentration (in ng/μL)
IL8 level (IL8 [10]): 30.6 pg/mL/RNA concentration (in ng/μL)
